This assay has as its system mouse myoblasts (C2C12) myotubes. The assay is described as follows: C2C12 myotube atrophy induced by C26 cell culture medium (HE staining, myotube diameter). The conditions noted are these: C26 medium-induced C2C12 myotubes; for Myotube atrophy reversal rate (%): 48 h. Type of assay: cell-based. From the text: Carbamo(dithioperoxo)thioate analogs alleviate mouse myoblasts (C2C12) atrophy induced by mouse colon cancer cell (C26).
The diameter measurement method was used to evaluate the diameter of myotubes differentiated from mouse myoblasts (C2C12). The staining method used in the experiment was hematoxylin-eosin staining, referred to as HE staining. The hematoxylin stain is alkaline, positively charged, and easily binds to negatively charged and acidic deoxyribonucleic acid (DNA) in the nucleus with ionic bonding to show blue; while eosin is an acidic dye that dissociates into negatively charged anions in water and easily binds to the positively charged amino groups of proteins in the cytoplasm to show red. The stained cells were placed under a high-magnification microscope to take photos (magnification power: 400), and the diameter of myotubes could be counted using image J software.
The above method allows to evaluate the effect of the drug on the muscle atrophy cell model. The specific method is as follows.
C2C12 cells were seeded in 24-well plates in a culture medium of high-glucose DMEM medium containing 10% FBS and 1% P/S, and placed in a 5% CO2, 37° C. environment. When the cell density reaches 50%˜60%, the culture medium was changed into 2% HS differentiation medium (high-glucose DMEM medium containing 2% HS and 1% P/S); the differentiation medium was changed every 48 h until mature on day 5 or day 6. In addition, C26 cells were inoculated in T75 flasks, and the culture medium was changed into high-glucose DMEM medium containing 10% FBS and 1% P/S, and placed in a 5% CO2, 37° C. environment. While C26 cells (6×10^6 cells/flasks) were passaged, add 20 mL of culture medium to sequentially subculture for 48 h. To obtain the C26 supernatant, centrifuge C26 culture medium at 1000 rpm for 3 min and then at 4000 rpm for 10 min successively. The C26 supermatant and 2% HS differentiation medium were mixed 1:1 (volume ratio) as a muscle atrophy inducing medium. Except for the control group with 2% HS differentiation medium, other each group was added with the equal amounts of muscle atrophy-inducing medium and one group was used as the model group, and the rest groups were used as the experimental groups for drug administration. At the same time, carbamo(dithioperoxo)thioate compounds were added into the cells at the following gradient concentrations.
Wherein, the serial numbers correspond to the numbers of the accompanying figures, that is, FIG. 1-46 correspond to the samples of serial numbers 1-46 in Table 1. μM refers to μmol/L.
Myotube diameter was measured as follows.
After 48 h of action, the myotubes were fixed with fixative solution (anhydrous ethanol:formaldehyde:glacial acetic acid volume ratio=20:2:1) for more than 1 h, stained using hematoxylin-eosin staining method, and placed under a high-magnification microscope to acquire images and counted the diameter of myotubes using image J. The muscle atrophy reversal rate was calculated according to the following equation. Muscle atrophy reversal rate=(Average value of myotubes in drug administration group−Average value of myotubes in model group)/(Average value of myotubes in control group−Average value of myotubes in model group)×100%

With `CCCCCCCCCCCCSSC(=S)N1Cc2ccccc2C1` [Compound 9], the “Myotube atrophy reversal rate (%)” value by setting is: (25 μM) 12.22%; (50 μM) 29.24%; (l00 μM) 60.06%.
Consider `CCCCCCCCSSC(=S)N1CCCC1` [Compound 1], for which the “Myotube atrophy reversal rate (%)” value was found to be 18.39% (25 μM), 2.51% (50 μM) and 36.26% (l00 μM).
As for `CCCCCCCCCCCCSSC(=S)N1CC2CCCCC2C1` (stereo not drawn) [Compound 12], the “Myotube atrophy reversal rate (%)” value was 20.85% (25 μM), 49.43% (50 μM) and 66.73% (l00 μM).
With `CCCCCCCCCCCCCCCCSSC(=S)N1CCCC1` [Compound 7], the “Myotube atrophy reversal rate (%)” value is, setting by setting: (25 μM) 41.05%; (50 μM) 28.79%; (l00 μM) 43.99%.
Consider `CCCCCCCCCCCCSSC(=S)N1CCN(C)CC1` [Compound 16], for which the “Myotube atrophy reversal rate (%)” value by setting is: (25 μM) 31.39%; (50 μM) 46.75%.
On to `CCCCCCCCCCCCSSC(=S)N1CCC(O)C1` (stereo not drawn) [Compound 13], for which the “Myotube atrophy reversal rate (%)” value came out at 18.05% (25 μM) and 42.38% (50 μM).
On to `CCCCCCCCCCCCSSC(=S)N1CCc2ccccc21` [Compound 10], for which the “Myotube atrophy reversal rate (%)” value reads like this: (25 μM) 10.82%; (50 μM) 25.32%; (l00 μM) 45.93%.
Turning to `CCCCCCCCCCCCCCCCCCSSC(=S)N1CCCC1` [Compound 8], the “reversal of myotube atrophy (activity in words)” value is “lower”. Besides, the “Myotube atrophy reversal rate (%)” value (25 μM) is −1.83%. Besides, the “Myotube atrophy reversal rate (%)” value (50 μM) amounted to 17.41%. Moreover, the “Myotube atrophy reversal rate (%)” value (l00 μM) came out at 6.10%.
In the case of `CCCCCCCCCCCCSSC(=S)N1CCC2(COC2)C1` [Compound 11], the “Myotube atrophy reversal rate (%)” value (25 μM) is 42.30% and the “Myotube atrophy reversal rate (%)” value (50 μM) was 64.65%.
As to `CCCCCCCCCCCSSC(=S)N1CCCC1` [Compound 3], the “Myotube atrophy reversal rate (%)” value by setting is: (25 μM) 35.76%; (50 μM) 33.40%; (l00 μM) 46.11%.
In the case of `CCCCCCCCCCCCCSSC(=S)N1CCCC1` [Compound 5], the “Myotube atrophy reversal rate (%)” value is, setting by setting: (25 μM) 23.27%; (50 μM) 40.28%.
With `CCCCCCCCCCCCCCSSC(=S)N1CCCC1` [Compound 6], the “Myotube atrophy reversal rate (%)” value reads like this: (25 μM) 20.41%; (50 μM) 35.98%; (l00 μM) 33.80%.
On to `CCCCCCCCCCCCSSC(=S)N1CCCCC1` [Compound 14], for which the “Myotube atrophy reversal rate (%)” value runs as follows: (25 μM) 17.02%; (50 μM) 43.19%.
As for `CCCCCCCCCCSSC(=S)N1CCCC1` [Compound 2], the “Myotube atrophy reversal rate (%)” value was 16.94% (12.5 μM), 43.90% (25 μM) (25 μM) and 61.05% (50 μM) (50 μM).
Turning to `CCCCCCCCCCCCSSC(=S)N1CCOCC1` [Compound 15], the “Myotube atrophy reversal rate (%)” value by setting is: (25 μM) 26.47%; (50 μM) 48.24%.
On to `CCCCCCCCCCCCSSC(=S)N1CCC1` [Compound 17], for which the “Myotube atrophy reversal rate (%)” value is reported as 26.34% (25 μM) and 53.97% (50 μM).
